Assay results reported in article PMC6522510 (Nature Communications, 2019).
Structures can show the parent of a compound that is named as a salt. Where two headings read alike, the source gives them in different places.

How the values were obtained:
Set-up in all cases: species or system AML cell lines (8); Primary HTS, single concentration about 10 uM, Cell Titer Glo viability; log10 luminescence, per cent inhibition relative to cycloheximide control
Settings in all cases: 72 h, relative to cycloheximide control, log10 luminescence, inhibitor
M07e = tested on: M07e
ML-2 = tested on: ML-2
MOLM-13 = tested on: MOLM-13
CMS = tested on: CMS
U937 = tested on: U937
CHRF288-11 = tested on: CHRF288-11
MV4-11 = tested on: MV4-11
CMK = tested on: CMK

Structure (SMILES)	M07e %inh (M07e; M07e %inh, 10 µM) [%]	ML-2 %inh (ML-2; ML-2 %inh, 10 µM) [%]	MOLM-13 %inh (MOLM-13; MOLM-13 %inh, 10 µM) [%]	CMS %inh (CMS; CMS %inh, 10 µM) [%]	U937 %inh (U937; U937 %inh, 10 µM) [%]	CHRF288-11 %inh (CHRF288-11; CHRF288-11 %inh, 10 µM) [%]	MV4-11 %inh (MV4-11; MV4-11 %inh, 10 µM) [%]	CMK %inh (CMK; CMK %inh, 10 µM) [%]	M07e %inh (M07e) [%]	ML-2 %inh (ML-2) [%]	MOLM-13 %inh (MOLM-13) [%]	CMS %inh (CMS) [%]	U937 %inh (U937) [%]	CHRF288-11 %inh (CHRF288-11) [%]	MV4-11 %inh (MV4-11) [%]	CMK %inh (CMK) [%]
CC1/C=C/C=C/C=C/C=C/C=C/C=C/C=C/C(OC2O[C@H](C)[C@@H](O)[C@H](N)[C@@H]2O)CC(O)C(C(=O)O)C(O)CC(=O)CC(O)CC(O)CC(O)CC(=O)CCCC(=O)CC(=O)OC1C(C)CC(C)C(O)CC(=O)c1ccc(N)cc1 (single isomer, unassigned) [SJ000565161-2, CANDICIDIN]	-1.61	-0.08515	0.5936	0.8019	-1.702	84.68	0.2404	-1.968	–	–	–	–	–	–	–	–
O=c1ncnc2n([C@H]3O[C@@H](CO)[C@H](O)[C@@H]3O)[nH]cc1-2 (stereo in doubt) [SJ000562682-1, ALLOPURINOL RIBOSIDE]	–	–	–	–	–	–	–	–	-1.058	0.3274	4.507	-1.89	0.8426	1.868	0.9814	1.077
CO[C@H]1/C=C/O[C@@]2(C)Oc3c(C)c(O)c4c(O)c(c(/C=N/N5CCN(C)CC5)c(O)c4c3C2=O)NC(=O)/C(C)=C\C=C\[C@H](C)[C@H](O)[C@@H](C)[C@@H](O)[C@@H](C)[C@H](OC(C)=O)[C@@H]1C [SJ000000850-5, RIFAMPIN | RIFAMPICIN]	0.4502	5.116	-1.813	9.631	3.295	0.3238	3.37	-4.011	–	–	–	–	–	–	–	–
CO[C@H]1/C=C/O[C@@]2(C)Oc3c(C)c(O)c4c(O)c(c(/C=N/N5CCN(C)CC5)c(O)c4c3C2=O)NC(=O)/C(C)=C\C=C\[C@H](C)[C@H](O)[C@@H](C)[C@@H](O)[C@@H](C)[C@H](OC(C)=O)[C@@H]1C [SJ000000850-6, RIFAMPIN | RIFAMPICIN]	0.5367	3.762	5.052	11.96	3.577	0.456	5.189	-0.3986	–	–	–	–	–	–	–	–
CO[C@H]1/C=C/O[C@@]2(C)Oc3c(C)c(O)c4c(O)c(c(/C=N/N5CCN(C)CC5)c(O)c4c3C2=O)NC(=O)/C(C)=C\C=C\[C@H](C)[C@H](O)[C@@H](C)[C@@H](O)[C@@H](C)[C@H](OC(C)=O)[C@@H]1C [SJ000000850-7, RIFAMPIN | RIFAMPICIN]	2.856	2.607	4.02	16.96	2.422	22.26	6.955	0.4994	–	–	–	–	–	–	–	–
COc1cc2nc(N3CCN(C(=O)C4COc5ccccc5O4)CC3)nc(N)c2cc1OC (centres unmarked) [SJ000113084-6, DOXAZOSIN MESYLATE]	–	–	–	–	–	–	–	–	-1.557	-0.964	9.986	0.401	1.071	36.53	-1.195	9.497
N#Cc1c(NC(=O)c2ccccc2F)sc2c1CCCC2 [SJ000121296-2, R15619/66/1]	–	–	–	–	–	–	–	–	15.03	8	0.9257	2.048	21.81	1.937	-1.785	11.25
CC(=O)[C@H]1CC[C@H]2[C@@H]3CC=C4C[C@@H](O)CC[C@]4(C)[C@H]3CC[C@]12C [SJ000281777-6, PREGNENOLONE]	–	–	–	–	–	–	–	–	1.706	0.5574	2.085	6.885	3.219	0.2511	6.672	-1.238
O=c1oc2ccccc2c(O)c1Cc1c(O)c2ccccc2oc1=O [SJ000285189-5, DICUMAROL]	-2.456	-1.314	-3.706	-1.99	-0.6	8.973	-2.098	-3.554	–	–	–	–	–	–	–	–
O=c1oc2ccccc2c(O)c1Cc1c(O)c2ccccc2oc1=O [SJ000285189-6, DICUMAROL]	0.4208	-0.8259	0.9251	-1.661	-0.6405	3.41	0.4793	-0.9245	–	–	–	–	–	–	–	–
C[C@H]1O[C@@H](O[C@H]2[C@@H](O)C[C@H](O[C@H]3[C@@H](O)C[C@H](O[C@H]4CC[C@@]5(C)[C@H](CC[C@@H]6[C@@H]5CC[C@]5(C)[C@@H](C7=CC(=O)OC7)CC[C@]65O)C4)O[C@@H]3C)O[C@@H]2C)C[C@H](O)[C@@H]1O [SJ000285233-4, DIGITOXIN]	114.3	57.88	81.14	96.1	77.98	102.9	82.27	102	–	–	–	–	–	–	–	–
C[C@H]1O[C@@H](O[C@H]2[C@@H](O)C[C@H](O[C@H]3[C@@H](O)C[C@H](O[C@H]4CC[C@@]5(C)[C@H](CC[C@@H]6[C@@H]5CC[C@]5(C)[C@@H](C7=CC(=O)OC7)CC[C@]65O)C4)O[C@@H]3C)O[C@@H]2C)C[C@H](O)[C@@H]1O [SJ000285233-5, DIGITOXIN]	112.2	58.4	87.24	97.86	78.87	112.4	76.58	108.7	–	–	–	–	–	–	–	–
Cn1cnc([N+](=O)[O-])c1Sc1ncnc2[nH]cnc12 [SJ000285241-8, AZATHIOPRINE]	–	–	–	–	–	–	–	–	7.374	14.66	36.41	0.5483	-0.6587	14.99	14.19	49.74
Cc1ccc2cc3c(ccc4ccccc43)c3c2c1CC3 [SJ000285253-3, 3-METHYLCHOLANTHRENE]	–	–	–	–	–	–	–	–	0.9432	4.978	2.389	3.804	0.01725	5.022	4.129	1.143
Oc1c(Cl)cc(Cl)c(Cl)c1Cc1c(O)c(Cl)cc(Cl)c1Cl [SJ000285273-4, HEXACHLOROPHENE]	–	–	–	–	–	–	–	–	10.84	15.89	75.15	32.47	24.03	23.59	7.526	117.7
O=C(O)P(=O)(O)O [SJ000285291-3, FOSCARNET SODIUM]	–	–	–	–	–	–	–	–	-4.14	-0.9621	3.283	0.8709	-2.189	-2.096	0.7745	3.052
